These results are taken from patent US10933147B2, “Imaging of metastatic or recurrent cancer” (Blue Earth Diagnostics Limited, priority 2015, dated 2021).

For series [1] the following is noted: human, in vivo. As to the method: FIGS. 1a and 1b show accumulation of FACBC in the Virchow's node when the FACBC is injected into the left arm.
In some embodiments, the right arm may be preferred as stasis in the axillary vein upon injection in the left arm may be misinterpreted as a metastatic lymph node called Virchow's node, which is located in the left supraclavicular fossa (the area above the left clavicle, or collar bone). For example, FIGS. 1a and 1b show accumulation of FACBC in the Virchow's node when the FACBC is injected into the left arm.

For series [2], the system named is known prostate carcinoma recurrence. The series can be described thus: PET time activity curves in prostate carcinoma recurrence. The format is in vivo, human. On the procedure: (§1) Regions in marrow (ilium), muscle (gluteus), and bladder reached a plateau at 4.5 minutes that remained constant throughout the imaging period.
(§2) The time required for [^18F]-FACBC to accumulate in tumour cells in steps a) and c) of the aspects described above may be about 5 minutes or less after [^18F]-FACBC is administered. Optionally, the time taken for [^18F]-FACBC to accumulate is 3 to 5 minutes, for example 4 minutes. This therefore allows image acquisition to start 3 to 5 minutes after administration, for example 4 minutes after [^18F]-FACBC administration. […] Regions in marrow (ilium), muscle (gluteus), and bladder reached a plateau at 4.5 minutes that remained constant throughout the imaging period.

Series [3] is described as follows: PET time activity curves in reference regions. The following applies: regions in marrow (ilium), muscle (gluteus), and bladder; remained constant throughout the imaging period. The series is classed as in vivo, human. As to the method: as §1, §2

Take `N[C@]1(C(=O)O)C[C@@H](F)C1` [fluciclovine, anti-1-amino-3-^18F-fluorocyclobutane-1-carboxylic acid]: the “standardized uptake value (SUV)” value in series [1] is listed as more than 200. Also, in series [2] (known prostate carcinoma recurrence, after the maximum), the “plateau of uptake lasts to” value turned out to be 30 min. Also, in series [2] (known prostate carcinoma recurrence, after the plateau, out to 60 minutes), the gradual clearance is reported as 9 %/min. Also, the “time of maximum uptake” value in series [2] (rapid uptake in known prostate carcinoma recurrence) worked out at 4.5 min. Further, the “time at which plateau is reached” value in series [3] stood at 4.5 min.
